These results are taken from PMC6831628, “Steady-state activation of the high-affinity isoform of the α4β2δ GABAA receptor” (Scientific Reports, 2019).

Several values for one entry are separate records, joined by “and”; a condition that tells them apart may be missing. Equal values may be shown once. Read-outs that look alike come from different tables or passages of the source.

Experiment [1] addresses α1β2γ2L receptor with β2(Y205S) mutation (Homo sapiens, UniProt P14867+P47870, Y229S). The experiment can be described thus: activation of α1β2γ2L receptor carrying the β2(Y205S) mutation. The format is cell-based. Particulars: data not shown.
For experiment [2], the target named is T1, α4β2δ receptor with β2(Y205S) mutation (Homo sapiens, UniProt P47870+P48169, Y229S).
T1 construct: expressed in transfected cells; host or cells: Xenopus laevis oocytes (inferred from the Methods on α4β2δ)
The experiment can be described thus: activation of α4β2δ receptor carrying the β2(Y205S) mutation. The experiment is classed as cell-based. The note with it: data not shown.

The target in experiment [3] is T2, human α4β2δ GABAA receptors (Homo sapiens, UniProt P47870+P48169).
T2 construct: expressed in transfected cells; host or cells: Xenopus laevis oocytes injected with cRNA, 5:1:5 (α4:β2:δ)
The experiment can be described thus: two-electrode voltage clamp of α4β2δ GABAA receptors expressed in Xenopus laevis oocytes (RAD model analysis). The experiment is classed as cell-based. Particulars: for calculated steady-state POpen: Eq. (4); for EC50: Hill equation; for EC50 / Hill coefficient: mean ± S.D.; for maximal peak open probability (POpen,peak): theoretical/predicted maximum from L, c and N; for contribution towards stabilization of the open state: N×RT×ln(c), GABA 2 sites, propofol 4 sites; for Q (=A/D), equilibrium between active and desensitized states: steady-state currents fitted to Eq. (2), K and c constrained to peak values. The method, then:
The human α4β2δ GABAA receptors were expressed in Xenopus laevis oocytes. Harvesting of oocytes was conducted under the Guide for the Care and Use of Laboratory Animals as adopted and promulgated by the National Institutes of Health. The animal protocol was approved by the Animal Studies Committee of Washington University in St. Louis (Approval No. 20170071).
The cDNAs of individual subunits in the pcDNA3 vector were linearized with Xba I (NEB Labs, Ipswich, MA). The cRNAs were generated using mMessage mMachine (Ambion, Austin, TX). The oocytes were injected with a total of 11 ng cRNA per oocyte in a 5:1:5 (α4:β2:δ) ratio. Following injection, the oocytes were incubated in bath solution (96 mM NaCl, 2 mM KCl, 1.8 mM CaCl2, 1 mM MgCl2, and 5 mM HEPES; pH 7.4) plus supplements (2.5 mM Na pyruvate, 100 U/ml penicillin, 100 μg/ml streptomycin, and 50 μg/ml gentamycin) at 15 °C for 3–4 days prior to conducting electrophysiological recordings.
The recordings were conducted at room temperature using standard two-electrode voltage clamp. The pipets were filled with 3 M KCl. The oocytes were clamped at −60 mV. The chamber (RC-1Z, Warner Instruments, Hamden, CT) was perfused with bath solution (see above) at 5–8 ml/min. Solutions were gravity-applied from 30-ml glass syringes with glass luer slips via Teflon tubing, and switched manually.
The current responses were amplified with an Axoclamp 900A (Molecular Devices, Sunnyvale, CA) or OC-725C amplifier (Warner Instruments, Hamden, CT), digitized with a Digidata 1320 or 1200 series digitizer (Molecular Devices), and stored using pClamp (Molecular Devices).
In such cases, the number of cell provided is given as a range of cell numbers for each concentration point. […] The level of constitutive activity was determined by exposing the cells to 100–300 μM picrotoxin.
The current traces were analyzed using Clampfit (Molecular Devices) to determine the amplitudes of peak and steady-state responses. If steady-state (defined as ΔI < 2% during the last 20 s of agonist application) was not reached by the end of the agonist application, an estimate was made by exponential fitting of the current decay. Fitting was done using pClamp, to a single exponential or sums of up to three exponentials. The constant offset is reported as the steady-state response.

Another experiment has as its system α1β2γ2L GABAA receptor. Particulars: cited from earlier work.
For another experiment, the target named is α4β3δ receptors. The note with it: oocytes, cited from earlier work.
The subject of experiment [4] is receptors resulting from the expression of α4, β (β2 or β3), and δ subunits. The note with it: cited from earlier work.
Where [5] appears, read: peak currents fitted to Eq. (1).

T2 sequence (P48169 36-554): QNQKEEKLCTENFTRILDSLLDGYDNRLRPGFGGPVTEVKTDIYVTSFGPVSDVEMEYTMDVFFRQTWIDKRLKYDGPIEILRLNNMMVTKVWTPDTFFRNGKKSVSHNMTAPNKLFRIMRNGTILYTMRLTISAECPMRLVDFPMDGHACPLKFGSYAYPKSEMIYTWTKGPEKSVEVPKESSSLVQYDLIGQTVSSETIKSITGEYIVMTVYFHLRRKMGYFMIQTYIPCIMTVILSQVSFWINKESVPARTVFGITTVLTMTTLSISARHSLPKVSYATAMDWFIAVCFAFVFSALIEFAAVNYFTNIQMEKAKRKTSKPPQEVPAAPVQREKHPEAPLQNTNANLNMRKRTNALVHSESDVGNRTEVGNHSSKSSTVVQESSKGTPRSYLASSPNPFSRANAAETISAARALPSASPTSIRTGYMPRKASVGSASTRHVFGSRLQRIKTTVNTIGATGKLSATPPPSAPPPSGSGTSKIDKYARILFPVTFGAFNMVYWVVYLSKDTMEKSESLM
T2 sequence (P47870 25-512 limits assumed): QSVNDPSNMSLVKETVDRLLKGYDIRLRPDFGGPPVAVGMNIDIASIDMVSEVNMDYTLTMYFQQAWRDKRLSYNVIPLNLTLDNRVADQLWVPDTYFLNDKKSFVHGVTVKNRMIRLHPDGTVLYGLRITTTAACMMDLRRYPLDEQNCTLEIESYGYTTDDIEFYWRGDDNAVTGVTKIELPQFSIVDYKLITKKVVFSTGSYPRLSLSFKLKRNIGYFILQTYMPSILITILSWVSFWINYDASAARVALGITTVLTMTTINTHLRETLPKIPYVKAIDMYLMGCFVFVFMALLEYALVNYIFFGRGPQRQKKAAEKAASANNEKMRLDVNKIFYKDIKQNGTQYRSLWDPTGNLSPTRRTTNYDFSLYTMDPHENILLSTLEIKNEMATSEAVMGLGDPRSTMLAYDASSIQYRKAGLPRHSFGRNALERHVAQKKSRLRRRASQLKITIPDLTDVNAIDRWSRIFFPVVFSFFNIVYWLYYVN
T2 sequence (O14764 25-452 partner): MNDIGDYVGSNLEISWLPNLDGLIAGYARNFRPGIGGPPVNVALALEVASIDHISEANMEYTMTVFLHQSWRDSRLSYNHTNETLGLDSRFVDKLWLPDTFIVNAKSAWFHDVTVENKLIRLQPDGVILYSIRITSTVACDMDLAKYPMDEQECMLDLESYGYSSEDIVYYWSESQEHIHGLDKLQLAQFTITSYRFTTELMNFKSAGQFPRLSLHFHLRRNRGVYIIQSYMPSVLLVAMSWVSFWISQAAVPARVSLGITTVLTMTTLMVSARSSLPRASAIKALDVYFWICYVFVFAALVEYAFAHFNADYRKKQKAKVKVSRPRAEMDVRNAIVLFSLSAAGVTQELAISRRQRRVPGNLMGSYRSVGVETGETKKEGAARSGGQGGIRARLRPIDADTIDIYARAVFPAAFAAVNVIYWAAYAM
T1 sequence (P48169 36-554): as the sequence (P48169 36-554) above
T1 sequence (P47870 25-512 Y229S limits assumed): as the sequence (P47870 25-512 limits assumed) above, with Y205S counted along it
T1 sequence (O14764 25-452 partner): as the sequence (O14764 25-452 partner) above
Chain of α1β2γ2L receptor with β2(Y205S) mutation (P14867 28-456): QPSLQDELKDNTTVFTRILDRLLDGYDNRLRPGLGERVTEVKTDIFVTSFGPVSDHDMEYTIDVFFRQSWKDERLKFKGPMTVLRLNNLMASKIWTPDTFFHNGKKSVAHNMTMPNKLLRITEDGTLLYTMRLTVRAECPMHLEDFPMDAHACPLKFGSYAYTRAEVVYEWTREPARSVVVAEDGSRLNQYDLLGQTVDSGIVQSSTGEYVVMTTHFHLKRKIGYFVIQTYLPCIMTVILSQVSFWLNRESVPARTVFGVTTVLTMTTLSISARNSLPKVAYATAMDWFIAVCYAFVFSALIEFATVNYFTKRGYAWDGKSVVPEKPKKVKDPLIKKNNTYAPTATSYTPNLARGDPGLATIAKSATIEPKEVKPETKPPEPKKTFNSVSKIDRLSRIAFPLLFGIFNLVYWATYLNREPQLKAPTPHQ
Chain of α1β2γ2L receptor with β2(Y205S) mutation (P47870 25-512 Y229S limits assumed): as the sequence (P47870 25-512 limits assumed) above, with Y205S counted along it
Chain of α1β2γ2L receptor with β2(Y205S) mutation (P18507 40-475 partner): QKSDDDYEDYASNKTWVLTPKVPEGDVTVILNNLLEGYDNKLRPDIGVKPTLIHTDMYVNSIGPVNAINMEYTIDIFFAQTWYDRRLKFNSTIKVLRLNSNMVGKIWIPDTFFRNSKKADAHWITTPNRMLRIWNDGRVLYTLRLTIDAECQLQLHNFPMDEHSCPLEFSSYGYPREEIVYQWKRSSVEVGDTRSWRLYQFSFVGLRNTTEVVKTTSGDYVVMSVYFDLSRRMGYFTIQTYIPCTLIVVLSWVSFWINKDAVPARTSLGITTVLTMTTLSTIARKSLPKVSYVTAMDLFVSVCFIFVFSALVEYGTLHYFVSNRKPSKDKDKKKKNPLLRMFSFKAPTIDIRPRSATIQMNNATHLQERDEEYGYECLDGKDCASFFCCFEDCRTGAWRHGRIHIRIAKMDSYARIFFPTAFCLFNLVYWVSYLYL

In the case of `NCCS(=O)(=O)O` [taurine, 2-aminoethanesulfonic acid], the activation by taurine in experiment [1] and in experiment [2] was < 0.2 % of the response to GABA + propofol in each case. Also, the “calculated steady-state POpen” value in experiment [3] (10 μM taurine) is 0.21. In addition, the “Q (=A/D), calculated value” in experiment [3] (calculated from steady-state open probability with 1 mM taurine) is given as 0.52. In addition, the steady-state open probability in experiment [3] (long (190–410 s) applications of 1 mM taurine) came out at 0.23 ± 0.04. In addition, the “cX, ratio of equilibrium dissociation constant of the open receptor to KX” value (“cX, ratio” for short) in experiment [3] (setting [5]) came to 0.47 ± 0.02. Besides, in experiment [3] (peak currents fitted to Eq. (1), best-fit ± S.E. of the fit, read-out: KX, equilibrium dissociation constant of the resting receptor), the Kd was 10 ± 2.1 µM. In experiment [3] (peak currents, read-out: EC50), the EC50 was 9.8 µM and 10 µM. Besides, the Hill coefficient in experiment [3] (peak currents) is on record as 0.70 ± 0.08. Further, the “maximal peak open probability (POpen,peak)” value (from here on “maximal peak open probability”) in experiment [3] is 0.44 and 0.4 and ~ 0.4.
As for `NCCCC(=O)O` [GABA], the “stabilization energy from binding of two GABA molecules” value with α1β2γ2L GABAA receptor was 6.4 to 7.5 kcal/mol. Also, the “calculated steady-state POpen” value in experiment [3] (30 nM GABA) is listed as 0.24. In addition, the “open probability (peak)” value in experiment [3] (0.3 μM GABA, relative to PTX (0) and 10 μM GABA + 50 μM propofol (1)) is 0.35 ± 0.09. In addition, in experiment [3], the “contribution towards stabilization of the open state” value is 0.94 kcal/mol; the “Q (=A/D), equilibrium between active and desensitized states” value was 0.78 ± 0.08 and 0.78; the “maximal peak open probability” value was 0.44 and 0.42 and 0.4 and ~ 0.4. In addition, the Hill coefficient in experiment [3] (peak currents) came to 0.80 ± 0.09. Besides, in experiment [3] (saturating GABA), the “steady-state open probability (POpen,S.S.)” value is listed as around 0.3.
Regarding `CC(C)c1cccc(C(C)C)c1O` [propofol], the “predicted POpen,S.S. after addition of propofol” value in experiment [3] (1 μM propofol added to 30 nM GABA, 10 μM taurine, 30 nM 3α5αP, 0.1 μM PS) is reported as 0.28. In experiment [3] (1 μM propofol, peak response), the “peak response to 0.3 μM GABA with coapplied propofol” value is recorded as 151 ± 12 % of control. In addition, in experiment [3] (1 μM propofol, steady-state response), the “steady-state response to 0.3 μM GABA with propofol” value is listed as 145 ± 14 % of control. Besides, the EC50 in experiment [3] (EC50, peak currents) came out at 7.3 ± 2 µM. For the same compound, the Kd in experiment [3] (KX, equilibrium dissociation constant of the resting receptor, peak currents fitted to Eq. (1), best-fit ± S.E. of the fit) was 55.1 µM and > 50 µM. In addition, in experiment [3], the “contribution towards stabilization of the open state” value amounted to 4.3 kcal/mol; the “Q (=A/D), equilibrium between active and desensitized states” value was 1.29 ± 0.14 and 1.29; the “maximal peak open probability” value was 0.99 and ~ 0.99. The “cX, ratio” value in experiment [3] (setting [5]) was determined as 0.16 ± 0.01. For the same compound, the Hill coefficient in experiment [3] (peak currents) amounted to 2.17 ± 0.65.
As to `CC(=O)[C@H]1CC[C@H]2[C@@H]3CC[C@H]4C[C@H](O)CC[C@]4(C)[C@H]3CC[C@]12C` [3α5αP, allopregnanolone], in experiment [3], the Kd came out at 0.21 ± 0.04 µM; the “Q (=A/D), equilibrium between active and desensitized states” value was 0.89 ± 0.33 and 0.89; the “maximal peak open probability” value was ~ 0.2. In addition, the EC50 in experiment [3] (EC50, peak currents) was determined as 0.23 ± 0.1 µM. Moreover, in experiment [3] (setting [5]), the “cX, ratio” value was determined as 0.68 ± 0.01. The same compound returned a Hill coefficient in experiment [3] (peak currents) of 1.17 ± 0.30. The “maximal peak open probability” value in experiment [3] (listed as allopregnanolone) was 0.2.
For the compound `O=c1[nH]oc2c1CCNC2` [THIP], the EC50 is below 0.1 µM on α4β3δ receptors (read-out: high-affinity component of concentration-response curve) and above 10 µM on α4β3δ receptors (read-out: low-affinity component of concentration-response curve).
Regarding `O=C(Nc1c(-c2cccs2)nc2ccccn12)c1ccc(Cl)cc1` [DS-2], the direct activation result in experiment [3] (isoform investigated in the present study) is given as “directly activated”. Further, in experiment [4] (high-affinity isoform), the “effect of DS-2” value was “directly activated”. The “effect of DS2” value in experiment [4] (low-affinity isoform) is “potentiated but not directly activated”.
pregnenolone sulfate [PS]: the dPS in the experiment with α1β2γ2L GABAA receptor was 0.11. Moreover, on α1β2γ2L GABAA receptor (read-out: KPS), the Kd was 1.9 µM. The “dPS, ratio of equilibrium dissociation constant of the desensitized receptor to KPS” value in experiment [3] (fit to Eq. (3), 0.3 μM GABA, 1 site) is 0.14 ± 0.02. The high concentration asymptote in experiment [3] (steady-state current elicited by 0.3 μM GABA) is recorded as 50 ± 4 % of control.
